For 23 molecules, IC50 results are on record in patent publication US7304174B2, “CaSR antagonist” (Japan Tobacco Inc., priority 2003, dated 2007).

The target in this experiment is T1, human calcium receptor (Homo sapiens, UniProt P41180).
T1 construct: expressed in transfected cells; host or cells: cell strain derived from rat adrenal, co-transformed with luciferase cDNA
T1 sequence (P41180 20-1078): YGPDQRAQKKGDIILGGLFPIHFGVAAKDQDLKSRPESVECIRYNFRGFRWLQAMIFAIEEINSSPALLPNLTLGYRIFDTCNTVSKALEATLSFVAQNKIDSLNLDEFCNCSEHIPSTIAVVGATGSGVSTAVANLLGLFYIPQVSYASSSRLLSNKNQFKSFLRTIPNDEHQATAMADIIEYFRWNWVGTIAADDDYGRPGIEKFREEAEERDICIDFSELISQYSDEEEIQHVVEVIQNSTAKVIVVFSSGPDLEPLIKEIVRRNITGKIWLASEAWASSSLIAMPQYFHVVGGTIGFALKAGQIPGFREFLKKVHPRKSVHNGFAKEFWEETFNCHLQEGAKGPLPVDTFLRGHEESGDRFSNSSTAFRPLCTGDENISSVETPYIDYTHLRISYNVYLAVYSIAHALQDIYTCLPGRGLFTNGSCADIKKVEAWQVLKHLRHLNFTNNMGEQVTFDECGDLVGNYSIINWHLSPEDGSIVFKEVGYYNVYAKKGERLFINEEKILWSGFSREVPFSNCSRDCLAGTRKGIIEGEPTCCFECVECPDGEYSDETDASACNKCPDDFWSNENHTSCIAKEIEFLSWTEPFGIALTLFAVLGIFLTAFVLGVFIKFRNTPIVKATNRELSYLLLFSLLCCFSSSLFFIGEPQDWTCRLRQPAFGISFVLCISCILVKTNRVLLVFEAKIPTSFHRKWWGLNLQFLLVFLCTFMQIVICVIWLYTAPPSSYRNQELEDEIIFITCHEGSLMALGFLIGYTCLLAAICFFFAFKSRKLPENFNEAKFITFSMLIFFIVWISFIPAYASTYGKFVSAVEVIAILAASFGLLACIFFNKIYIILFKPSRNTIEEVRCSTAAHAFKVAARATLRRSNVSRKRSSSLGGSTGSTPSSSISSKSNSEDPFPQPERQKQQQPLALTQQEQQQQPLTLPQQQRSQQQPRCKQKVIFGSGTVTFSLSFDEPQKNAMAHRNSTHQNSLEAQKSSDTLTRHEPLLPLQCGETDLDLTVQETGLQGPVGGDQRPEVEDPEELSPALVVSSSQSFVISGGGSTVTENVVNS
Kind of experiment: Evaluation of antagonistic action on calcium receptor using reporter gene (luciferase). Particulars: transformed rat adrenal derived cells, 5 mM calcium chloride, culture 4 hrs, luciferase activity; read-out: Reporter gene assay (IC50, concentration showing 50% inhibitory rate). It counts as cell-based. Here is the method: Evaluation of Antagonistic Action on Calcium Receptor Using Reporter Gene
Luciferase cDNA and human calcium receptor cDNA were introduced into a cell strain derived from rat adrenal to transform the cells, and the transformed cells were cultured in a medium (80 μl, F12 medium containing 0.5% dialyzed horse serum and 0.25% dialyzed bovine fetal serum). A dimethyl sulfoxide solution containing a test compound at 0.1-10000 μM was diluted 100-fold with the medium and added to the test compound group at 10 μl per well (dimethyl sulfoxide final concentration 0.1%). In the same manner as in test compound group, dimethyl sulfoxide 100-fold diluted with medium was added to a control group and a blank group. Then, 50 mM calcium chloride-containing medium was added to every well except the blank group at 10 μl per well (final concentration 5 mM). A medium containing 50 mM calcium chloride was added to the control group at 10 μl per well, such that the final calcium concentration of the medium became 5 mM. A medium alone was added to the blank group. After culture for 4 hrs, luciferase substrate was added and the luciferase activity was measured with a photoluminometer. The inhibitory rate (%) was calculated from the obtained measured values according to the following formula.
Based on the results, the concentration (IC50) showing 50% inhibitory rate was determined. The results are shown in the aforementioned Tables 1 to 60.
As for “4-[2-[1-[(2R)-3-[[1-(3-fluoro-4-methylphenyl)-2-methylpropan-2-yl]amino]-2-hydroxypropoxy]ethyl]phenoxy]-3-methoxybenzoic acid [Example 2-2]”, the IC50 is 21 nM.
The result for `CC(OC[C@H](O)CNC(C)(C)Cc1ccc2ccccc2c1)c1ccccc1Cc1ccc(C(=O)O)cc1` (some centres unmarked) [2-14′] reads 30 nM; that for `CC(OC[C@H](O)CNC(C)(C)Cc1ccc2ccccc2c1)c1ccccc1OCc1cccc(C(=O)O)c1` (some centres unmarked) [2-21′], 26 nM.
For the molecule `CC(OC[C@H](O)CNC(C)(C)Cc1ccc2ccccc2c1)c1ccccc1OCc1ccc(C(=O)O)cc1` (some centres unmarked) [2-22′], the IC50 was determined as 23 nM.
Turning to `Cc1cc(CC(C)(C)NC[C@@H](O)CO[C@H](C)c2ccccc2-c2ccc(C(=O)O)c(C)c2)ccc1Cl` [Example 1-4, 2′-[1-[(2R)-3-[[1-(4-chloro-3-methylphenyl)-2-methylpropan-2-yl]amino]-2-hydroxypropoxy]ethyl]-3-methylbiphenyl-4-carboxylic acid], the IC50 turned out to be 14 nM.
Under `Cc1cc(-c2ccccc2[C@@H](C)OC[C@H](O)CNC(C)(C)Cc2ccc(C)c(F)c2F)ccc1C(=O)O` [Example 1-5, 2′-[1-[(2R)-3-[[1-(2,3-difluoro-4-methylphenyl)-2-methylpropan-2-yl]amino]-2-hydroxypropoxy]ethyl]-3-methylbiphenyl-4-carboxylic acid] stands 3 nM; under `Cc1ccc(CC(C)(C)NC[C@@H](O)CO[C@H](C)c2ccccc2-c2ccc(C(=O)O)c(C)c2)c(F)c1` [Example 1-7, 2′-[1-[(2R)-3-[[1-(2-fluoro-4-methylphenyl)-2-methylpropan-2-yl]amino]-2-hydroxypropoxy]ethyl]-3-methylbiphenyl-4-carboxylic acid], 15 nM.
Under `CCc1ccc(CC(C)(C)NC[C@@H](O)CO[C@H](C)c2ccccc2-c2ccc(C(=O)O)c(C)c2)cc1F` [Example 1-8, 2′-[1-[(2R)-3-[[1-(4-ethyl-3-fluorophenyl)-2-methylpropan-2-yl]amino]-2-hydroxypropoxy]ethyl]-3-methylbiphenyl-4-carboxylic acid] stands 15 nM.
The result for `Cc1cc(C(=O)O)cc(-c2ccccc2[C@@H](C)OC[C@H](O)CNC(C)(C)Cc2ccc3ccccc3c2)c1` [Example 1-9, 3-methyl-2′-[1-[(2R)-3-[[1-(naphthalen-2-yl)-2-methylpropan-2-yl]amino]-2-hydroxypropoxy]ethyl]biphenyl-5-carboxylic acid] reads 16 nM; that for `COC(=O)c1cc(C(=O)OC)cc(-c2ccccc2[C@@H](C)OC[C@H](O)CNC(C)(C)Cc2ccc3ccccc3c2)c1` [Example 1-10, methyl 2′-[1-[(2R)-3-[[1-(naphthalen-2-yl)-2-methylpropan-2-yl]amino]-2-hydroxypropoxy]ethyl]biphenyl-3,5-dicarboxylate], 29 nM; that for `Cc1cc(-c2ccccc2[C@H](OC[C@H](O)CNC(C)(C)Cc2ccc3ccccc3c2)C2CC2)ccc1C(=O)O` [Example 1-11, 2′-[(cyclopropyl)[(2R)-3-[[1-(naphthalen-2-yl)-2-methylpropan-2-yl]amino]-2-hydroxypropoxy]methyl]-3-methylbiphenyl-4-carboxylic acid], 18 nM.
Turning to `Cc1cc(-c2ccccc2[C@@H](C)OC[C@H](O)CNC(C)(C)Cc2ccc3ccccc3c2)ccc1C(=O)O` [Example 1-12, 2′-[1-[(2R)-3-[[1-(naphthalen-2-yl)-2-methylpropan-2-yl]amino]-2-hydroxypropoxy]ethyl]-3-methylbiphenyl-4-carboxylic acid], the IC50 came to 13 nM.
Under `Cc1cc(-c2ccccc2[C@@H](C)OC[C@H](O)CNC(C)(C)Cc2ccc3ccccc3c2)ccc1C(=O)O` [Example 1-13, 2′-[1-[(2R)-3-[[1-(naphthalen-2-yl)-2-methylpropan-2-yl]amino]-2-hydroxypropoxy]ethyl]-3-methylbiphenyl-4-carboxylic acid] stands 15 nM.
Consider `Cc1ccc(CC(C)(C)NC[C@@H](O)CO[C@@H](c2ccccc2-c2ccc(C(=O)O)c(C)c2)C2CC2)cc1F` [Example 1-14, 2′-[(cyclopropyl)[(2R)-3-[[1-(3-fluoro-4-methylphenyl)-2-methylpropan-2-yl]amino]-2-hydroxypropoxy]methyl]-3-methylbiphenyl-4-carboxylic acid], for which the IC50 was determined as 6 nM.
The result for `Cc1ccc(CC(C)(C)NC[C@@H](O)CO[C@H](C)c2ccccc2-c2ccc(C(=O)O)c(C)c2)cc1F` [Example 1-15, 2′-[1-[(2R)-3-[[1-(3-fluoro-4-methylphenyl)-2-methylpropan-2-yl]amino]-2-hydroxypropoxy]ethyl]-3-methylbiphenyl-4-carboxylic acid] reads 12 nM; that for `Cc1ccc(CC(C)(C)NC[C@@H](O)CO[C@H](C)c2ccccc2-c2ccc(C(=O)O)c(C)c2)cc1F` [Example 1-16, 2′-[1-[(2R)-3-[[1-(3-fluoro-4-methylphenyl)-2-methylpropan-2-yl]amino]-2-hydroxypropoxy]ethyl]-3-methylbiphenyl-4-carboxylic acid], 11 nM; that for `Cc1cc(C(=O)O)cc(-c2ccccc2[C@@H](C)OC[C@H](O)CNC(C)(C)Cc2ccc(C)c(F)c2)c1` [Example 1-17, 2′-[1-[(2R)-3-[[1-(3-fluoro-4-methylphenyl)-2-methylpropan-2-yl]amino]-2-hydroxypropoxy]ethyl]-3-methylbiphenyl-5-carboxylic acid], 15 nM.
`Cc1cc(-c2ccccc2C(OC[C@H](O)CNC(C)(C)Cc2ccc(Cl)cc2F)C2CC2)ccc1C(=O)O` (stereo partly drawn) [Example 1-18, 2′-[(cyclopropyl)[(2R)-3-[[1-(4-chloro-2-fluorophenyl)-2-methylpropan-2-yl]amino]-2-hydroxypropoxy]methyl]-3-methylbiphenyl-4-carboxylic acid]: the IC50 came out at 16 nM.
Turning to `Cc1cc(-c2ccccc2[C@H](OC[C@H](O)CNC(C)(C)Cc2ccc(Cl)c(F)c2)C2CC2)ccc1C(=O)O` [Example 1-19, 2′-[(cyclopropyl)[(2R)-3-[[1-(4-chloro-3-fluorophenyl)-2-methylpropan-2-yl]amino]-2-hydroxypropoxy]methyl]-3-methylbiphenyl-4-carboxylic acid], the IC50 was determined as 5 nM.
`COc1ccc(CC(C)(C)NC[C@@H](O)CO[C@H](C)c2ccccc2-c2ccc(C(=O)O)c(C)c2)cc1F` [Example 1-20, 2′-[1-[(2R)-3-[[1-(3-fluoro-4-methoxyphenyl)-2-methylpropan-2-yl]amino]-2-hydroxypropoxy]ethyl]-3-methylbiphenyl-4-carboxylic acid]: the IC50 amounted to 40 nM.
`Cc1ccc(CC(C)(C)NC[C@@H](O)CO[C@H](C)c2ccccc2-c2ccc(C(=O)O)c(C)c2)cc1C` [Example 1-21, 3-methyl-2′-[1-[(2R)-3-[[1-(3,4-dimethylphenyl)-2-methylpropan-2-yl]amino]-2-hydroxypropoxy]ethyl]biphenyl-4-carboxylic acid]: the IC50 is 13 nM.
The result for `Cc1ccc(CC(C)(C)NC[C@@H](O)CO[C@H](C)c2ccccc2-c2ccc(C(=O)O)c(C)c2)cc1` [Example 1-22, 2′-[1-[(2R)-3-[[1-(4-methylphenyl)-2-methylpropan-2-yl]amino]-2-hydroxypropoxy]ethyl]-3-methylbiphenyl-4-carboxylic acid] reads 12 nM.
As to `COc1cc(CC(C)(C)NC[C@@H](O)CO[C@H](C)c2ccccc2-c2ccc(C(=O)O)c(C)c2)ccc1Cl` [Example 1-23, 2′-[1-[(2R)-3-[[1-(4-chloro-3-methoxyphenyl)-2-methylpropan-2-yl]amino]-2-hydroxypropoxy]ethyl]-3-methylbiphenyl-4-carboxylic acid], the IC50 came to 16 nM.
